Experimental data published in patent EP4813985A1, “PREPARATION OF QUINAZOLINONE DERIVATIVE AS KINASE INHIBITOR, AND USE THEREOF” (Xizang Haisco Pharmaceutical Co., Ltd., priority 2023, dated 2025).
Like-named read-outs stand apart in the source and are kept apart here.

Key:
[1] = Pharmacokinetic test in mice; assay type: in vivo, ICR mice; settings: mouse, plasma; for Vd: read-out: Vdss
Experimental: 3.1 Experimental animals: Male ICR mice, 20-25 g, 6 mice/compound, purchased from Chengdu Dossy Experimental Animals Co., Ltd.
3.2 Experimental design: On the day of the experiment, the ICR mice were randomly grouped according to their body weights. The animals were fasted with water available for 12-14 h one day before the administration, and were fed 4 h after the administration. Table 3.1 Administration information
vehicle for intravenous administration: 5% DMA + 5% Solutol + 90% Saline; vehicle for intragastric administration: 0.5% MC
Before and after administration, 0.06 mL of blood was taken from the orbit under isoflurane anaesthesia and placed in an EDTAK2 centrifuge tube. The tube was centrifuged at 5000 rpm at 4°C for 10 min, and plasma was collected. The blood sampling time points for both the intravenous administration group and intragastric administration group were 0 min, 5 min, 15 min, 30 min, 1 h, 2 h, 4 h, 7 h, 24 h, and 48 h. Before analysis and detection, all samples were stored at -80°C, and the samples were quantitatively analysed by LC-MS/MS. Table 3.2 Pharmacokinetic parameters of test compounds in plasma of mice

A375 cells = experiment: A375 cell proliferation inhibition test; assay type: cell-based; settings: Homo sapiens, A-375, 72 h
Experimental: A375 cells (ATCC, CRL-1619) were cultured in DMEM complete medium (+10% FBS) in a CO2 incubator at 37°C for 48 h. The cells were trypsinised and counted, and then the density was adjusted to 1.67 × 10^4 cells/mL. 90 µL (1500 cells) of cells were inoculated into each well of a 96-well transparent bottom plate, and the plate was transferred to a CO2 incubator and the cells were cultured at 37°C overnight. After the cells were incubated overnight, 10 µL of the diluted compound (final concentration starting from 10 µM, 3-fold dilution, 11 concentrations) was added to each well using a multi-channel pipette. The […] control was a serum-free medium containing DMSO. After mixing evenly, the cells were placed in a CO2 incubator at 37°C for 72 h. After the incubation, the CellCounting-Lite®2.0 kit detection solution (Vazyme, DD1101-03) was taken out and returned to room temperature. 100 µL of CellCounting-Lite2.0 detection solution was added to each well, the plate was sealed with a sealing film, and the plate was placed on a shaker for shaking for 15 min (the whole process should be kept away from light). The Luminescence module of the microplate reader (BMG LRBTECH) was used to detect the fluorescence signal value LUM of each well. The formula Inhibition rate% = ((LUM Solvent−LUM Compound)/(LUM Solvent))∗100% [formula] was used to calculate the inhibition rate of the compound. The Graphpad software log(inhibitor) vs. response -- Variable slope (four parameters) equation was used to perform fitting analysis and calculate the IC50value of the sample. The ordinate of the data is the percentage of inhibition rate, and the abscissa is the logarithm of the sample concentration (Log10).

[2] = Pharmacokinetic test in mice; assay type: in vivo, ICR mice; settings: i.g. (10 mg/kg), relative to Control compound 1
BRAFV600E = biological target: T1, BRAFV600E (Homo sapiens, UniProt P15056, V600E); experiment: BRAFV600E enzyme activity test (ADP-Glo, MEK1K97R substrate); assay type: biochemical; settings: Inhibitory activities of compounds on BRAFV600E
T1 construct: purchased ABCAM ab204154
T1 sequence (P15056 416-766 V600E limits assumed): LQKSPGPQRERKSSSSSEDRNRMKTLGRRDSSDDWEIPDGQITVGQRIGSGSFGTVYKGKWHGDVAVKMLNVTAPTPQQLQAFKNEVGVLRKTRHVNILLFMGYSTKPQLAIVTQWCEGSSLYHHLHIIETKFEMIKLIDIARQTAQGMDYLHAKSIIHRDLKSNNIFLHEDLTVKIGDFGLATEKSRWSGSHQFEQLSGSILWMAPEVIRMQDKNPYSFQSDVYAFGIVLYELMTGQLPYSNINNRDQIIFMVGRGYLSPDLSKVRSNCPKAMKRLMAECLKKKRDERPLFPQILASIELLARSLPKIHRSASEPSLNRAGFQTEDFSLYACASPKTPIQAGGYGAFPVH
Experimental: BRAFV600E (ABCAM, ab204154) and MEK1K97R (USBio, M2865-06J) proteins were diluted at an appropriate dilution factor using 1×Assay buffer (PH = 7.4 Tris-HCl buffer, supplemented with 10 mM MgCl2) such that the final concentration of BRAFV600E was 10 ng/µL and the final concentration of substrate MEK1K97R was 1 µM. 1 µL of BRAFV600E, 1 µL of compound serial dilution (final concentration starting from 2 µM, 5-fold dilution, 8 concentrations), and 6 µL of Assay buffer were pipetted to a 384-well reaction plate with a capacity of 20 µL. The plate was pre-incubated in a constant temperature incubator at 37°C for 30 min. 1 µL of 200 µM ATP and 1 µM MEK1 K97R were added to the reaction wells corresponding to the compound incubation, and mixed evenly by shaking, and preincubation was performed in a constant temperature incubator at 37°C for 60 min for enzymatic reaction. After the reaction was completed, 5 µL of the above reaction product was pipetted to another 384-well plate, and 5 µL of formulated ADP-Glo™ Reagent (Promega, V9101) was added and mixed evenly by pipetting, and then the plate was placed at room temperature for 40 min. 10 µL Kinase Detection Reagent was added to the 384-well plate and incubated at room temperature for 40 min. Finally, a microplate reader (BMG LRBTECH) was used and Luminescence module was selected to detect the LUM fluorescence value of each well (the gain value was fixed at 3600), and the formula Inhibition rate% = (1−(LUM Compound−LUM Background)/(LUM Solvent−LUM Background))∗100% [formula] was used to calculate the inhibition rate of the compound on BRAFV600E. The Graphpad software log(inhibitor) vs. response -- Variable slope (four parameters) equation was used to perform fitting analysis and calculate the IC50value of the sample.

[3] = Inhibitory activities of compounds on A375 cells, read-out: IC50/nM
[4] = A375 cells, values in text, read-out: IC50

Row | SMILES | AUC(0-t) ([1]; iv, i.v. (2.5 mg/kg)) | clearance ([1]; iv, i.v. (2.5 mg/kg)) | half-life ([1]; iv, i.v. (2.5 mg/kg)) | Vd ([1]; iv, i.v. (2.5 mg/kg)) | bioavailability ([1]; po, i.g. (10 mg/kg)) | AUC(0-t) ([1]; po, i.g. (10 mg/kg)) | half-life ([1]; po, i.g. (10 mg/kg)) | IC50 (A375 cells; [3]) | Fold change in brain-blood ratio relative to control compound [2] | further results
1 | N#Cc1c(NS(=O)(=O)N2CC(=CF)C2)ccc(F)c1Oc1ccc2ncn(CC(F)F)c(=O)c2c1 [Compound 11] | 245 µg·h/mL | 0.163 mL/min/kg | 666 min | 0.123 L/kg | 98.1% | 962 µg·h/mL | 529 min | ≤ 10 nM | 6.1 | –
2 | CN(C1CC(=C(F)F)C1)S(=O)(=O)Nc1ccc(F)c(Oc2ccc3ncn(CC(F)F)c(=O)c3c2)c1C#N (centres unmarked) [Compound 12] | – | – | – | – | – | – | – | 10 to 50 nM | – | –
3 | CC=C1CN(S(=O)(=O)Nc2ccc(F)c(Oc3ccc4ncn(CCF)c(=O)c4c3)c2C#N)C1 [Compound 14] | 268 µg·h/mL | 0.154 mL/min/kg | 556 min | 0.098 L/kg | 85.1% | 912 µg·h/mL | 540 min | ≤ 10 nM | 3.5 | IC50 (A375 cells; [4]): 1.44 nM; IC50 (BRAFV600E): ≤ 10 nM
4 | C=C1CN(S(=O)(=O)Nc2ccc(F)c(Oc3ccc4ncn(CC(F)F)c(=O)c4c3)c2C#N)CC1F (centres unmarked) [Compound 21] | – | – | – | – | – | – | – | ≤ 10 nM | – | –
5 | CC=C1CN(S(=O)(=O)Nc2ccc(F)c(Oc3ccc4c(c3)C3=NCCN3C=N4)c2C#N)C1 [Compound 22] | – | – | – | – | – | – | – | 10 to 50 nM | – | –
6 | C=C1CN(S(=O)(=O)Nc2ccc(F)c(Oc3ccc4ncc(N5CCOCC5)nc4c3)c2C#N)C1 [Compound 23] | – | – | – | – | – | – | – | ≤ 10 nM | – | –
7 | CC(F)=C1CN(S(=O)(=O)Nc2ccc(F)c(Oc3ccc4ncn(CC(F)F)c(=O)c4c3)c2C#N)C1 [Compound 24] | 91.8 µg·h/mL | 0.462 mL/min/kg | 486 min | 0.237 L/kg | > 98% | 492 µg·h/mL | 590 min | ≤ 10 nM | 8.1 | IC50 (A375 cells; [4]): 2.16 nM; IC50 (BRAFV600E): ≤ 10 nM
8 | N#Cc1c(NS(=O)(=O)N2CC(=CC(F)(F)F)C2)ccc(F)c1Oc1ccc2ncn(CC(F)F)c(=O)c2c1 [Compound 25] | – | – | – | – | – | – | – | 10 to 50 nM | – | –
9 | N#Cc1c(NS(=O)(=O)N2CC(=CC(F)F)C2)ccc(F)c1Oc1ccc2ncn(CC(F)F)c(=O)c2c1 [Compound 26] | – | – | – | – | – | – | – | 10 to 50 nM | – | –
10 | CC=C1CN(S(=O)(=O)Nc2ccc(F)c(Oc3ccc4ncn(C)c(=O)c4c3)c2C#N)C1 [Compound 27] | – | – | – | – | – | – | – | ≤ 10 nM | – | –
